# Measured values from PubChem BioAssay AID1417 (Emory University Molecular Libraries Screening Center, 2008).
# Biological target: Induced myeloid leukemia cell differentiation protein Mcl-1 (Homo sapiens) (UniProt Q07820)
# Assay: Mcl-1/Noxa binding inhibitor potency, dose response, biochemical, TR-FRET (AID 1417)
# Conditions: Mcl-1/Noxa peptide interaction, cell-free TR-FRET (terbium/rhodamine), 2 h; measured here: absolute IC50
# Sequence of Induced myeloid leukemia cell differentiation protein Mcl-1 (Homo sapiens) (Q07820 whole entry, looked up): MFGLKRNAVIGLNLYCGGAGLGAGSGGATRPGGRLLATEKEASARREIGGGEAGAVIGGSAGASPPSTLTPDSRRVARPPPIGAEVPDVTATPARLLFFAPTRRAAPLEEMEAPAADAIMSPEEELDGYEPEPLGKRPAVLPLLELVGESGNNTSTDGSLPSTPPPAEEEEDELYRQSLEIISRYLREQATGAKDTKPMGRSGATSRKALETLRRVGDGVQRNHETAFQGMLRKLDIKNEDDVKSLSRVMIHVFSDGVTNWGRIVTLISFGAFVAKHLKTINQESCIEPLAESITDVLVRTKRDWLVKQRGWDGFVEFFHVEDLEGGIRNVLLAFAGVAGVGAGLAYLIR
row,Compound,IC50 [nM]
1,Cc1nnc(Sc2cc(NCCCO)c([N+](=O)[O-])c3nonc23)s1,1050
2,O=C1CC(c2ccc(O)c(O)c2)Oc2c1ccc(O)c2O (configuration not stated),2460
3,Cc1[nH]n(-c2ncc(-c3ccccc3)s2)c(=O)c1C(c1ccc(Cl)cc1)C(C#N)C#N (configuration not stated),12200
4,CCN(c1ccc(NC(=O)CCNC(=O)c2ccco2)cc1)C(C)C,> 54000
5,CSC1=N/C(=C\c2ccccc2F)C(=O)S1,> 54000
6,C1=CC2c3ccccc3NC(c3ccncc3)C2C1 (configuration not stated),1810
7,COc1cc(/C=C2/SC(=O)NC2=O)ccc1Oc1ccc([N+](=O)[O-])cc1[N+](=O)[O-],4200
8,Cc1ccc(C)c(S(=O)(=O)Nc2cc(SCC(=O)O)c(O)c3ccccc23)c1,< 400
9,Nc1ccc(N2CCCCC2)cc1N1CCCCC1,> 54000
10,O=c1cc(-c2ccc(O)c(-c3c(O)cc(O)c4c(=O)cc(-c5ccc(O)cc5)oc34)c2)oc2cc(O)cc(O)c12,1780
11,CCc1ccc2nc3sc(C(=O)Nc4nnc(CC)s4)c(N)c3cc2c1,> 54000
12,CCOC(=O)c1ccc(N=Nc2c(C)c(C#N)c(O)[nH]c2=O)cc1,2840
13,CS(=O)(=O)C1=NSC2=NC(=O)/C(=C\c3cccn3-c3ccc(Cl)cc3)C(=N)N21,3740
14,O=C(Cc1csc(N2CCOCC2)n1)N/N=C/c1ccc(O)c(O)c1O,< 400
15,NC(=S)n1[nH]c(-c2ccc([N+](=O)[O-])cc2)c(N=Nc2cccc(Cl)c2)c1=O,1480
16,Nc1ccc(N)c(C(=O)O)c1,1310
17,COc1cccc2c(=S)c(CCC(C)=O)c(C)[nH]c12,718
18,Cc1cc(N/N=C/c2ccc(O)c(C)c2O)nc(-c2ccccc2O)n1,3660
19,COC1=C/C(=C/c2c(N)n3nc(-c4ccc(C)cc4)sc3nc2=O)C=CC1=O,2820
20,Cc1cccc(NC(=O)CN2C(=O)N/C(=C/c3ccc(C)o3)C2=O)c1,> 54000
21,O=C(/C=C/c1cccnc1)c1ccc(O)cc1,> 54000
22,COc1ccc(N=C2NC(=O)/C(=C\C=C\c3ccco3)S2)cc1,1480
23,Cc1ccc2c(c1)C1CN(C)CCC1N2C(=O)Nc1cccc(Cl)c1 (configuration not stated),> 54000
24,CCOc1ccccc1Nc1nc(-c2sc(NC(=O)c3ccc([N+](=O)[O-])cc3)nc2C)cs1,< 400
25,Cc1cccc(C(=O)N=c2c(C#N)cc3c(=O)n4cccc(C)c4nc3n2Cc2ccco2)c1,4260
26,N#Cc1c2nc3ccccc3nc2n2cc(NC(=O)c3ccc(F)cc3)ccc12,< 400

row,Compound,IC50 [nM]
1,Cc1ccc(NC2=C(NC(=O)c3ccccc3)C(=O)c3ccccc3C2=O)cc1Cl,3900
2,O=C(Cc1cccs1)N/N=C/C=C\c1ccco1,> 54000
3,CCS(=O)(=O)N1CCN(C(C)CCc2ccccc2)CC1 (configuration not stated),> 54000
4,CCOC(=O)CSc1nnc2n1C(C)(C)Cc1ccccc1-2,> 54000
5,COc1ccccc1/C=C1/SC(=O)N(CCC(=O)Nc2ccc(S(=O)(=O)Nc3nccs3)cc2)C1=O,2850
6,COC(=O)Nc1ccc(S(=O)(=O)NCc2ccccn2)cc1,> 54000
7,O=C1CCCC2=C1C(c1ccc(O)c(O)c1)c1c(ccc3ncccc13)N2 (configuration not stated),< 400
8,Cc1ccc(N2C(=O)NC(=O)/C(=C/c3ccoc3)C2=O)cc1,4360
9,Cc1ccc(CNC(=O)c2ccc(-n3cccc3)cc2)cc1,2260
10,COc1cc(/C=C2\SC(=O)N(c3ccc(Cl)cc3)C2=O)cc([N+](=O)[O-])c1O,< 400
11,CN(C)c1ccc(Nc2nc(N)c([N+](=O)[O-])c(N3CCOCC3)n2)cc1,< 400
12,O=C(N/N=C/c1ccco1)c1cccc(N2Cc3ccccc3C2)c1,3500
13,Cc1cccc(/N=C/c2sc3ccccc3c2O)n1,759
14,CC1CCCCC12NC(=O)N(CC(=O)Nc1sc3c(c1C(N)=O)CCC3)C2=O (configuration not stated),3970
15,Cc1ccc2c(c1)c1ccc3c(c1n2C)C(=O)C=CC3=O,< 400
16,CCOC(=O)c1c(NC(=O)N/N=C/c2ccc(O)c(OC)c2)sc(C(C)=O)c1C,1590
17,CC1C(=O)NN=C1C(=O)N/N=C\c1ccc(O)cc1O (configuration not stated),< 400
18,O=C1NC(=S)S/C1=C\c1ccc(SCc2ccco2)o1,< 400
19,Nc1ccc2c(c1Cl)C(=O)c1ccc(N)c(Cl)c1C2=O,< 400
20,CCOC(=O)c1[nH]c2c(c1C)C(=O)CC(c1ccco1)C2 (configuration not stated),5640
21,Cn1cc(C(=O)N/N=C/c2ccc([N+](=O)[O-])cc2)c2ccccc21,3040
22,COc1ccc(N/C=C2\C(=O)CCc3c2oc2cc(Cl)c(O)c(Cl)c32)cc1,5070
23,CCOC(=O)c1cc(-c2ccc(/C=C3/C(=O)NC(=O)C(C#N)=C3C)o2)ccc1Cl,< 400
24,S=c1[nH]nc(-c2cc(-c3ccccc3)n[nH]2)n1/N=C/c1c2ccccc2cc2ccccc12,> 54000
25,COc1cc(SSc2cc(OC)cc([N+](=O)[O-])c2N)c(N)c([N+](=O)[O-])c1,< 400
26,CS(=O)(=O)c1ccc2c(c1)sc1nc(=O)c(/C=C3/C=CC(=O)C(O)=C3)c(N)n12,< 400

row,Compound,IC50 [nM]
1,CN(C)c1ccc(NC(=O)c2cccc(N3C(=O)C4C5C=CC(C5)C4C3=O)c2)cc1 (configuration not stated),> 54000
2,CCN(c1ccc(NC(=O)COC(=O)c2cc3ccccc3oc2=O)cc1)C(C)C,> 54000
3,CN=c1scc(C)n1/N=C/c1ccc(O)c(O)c1O,1760
4,CC(C)c1ccc(S(=O)(=O)/N=C2/C=CC(=O)c3ccccc32)cc1,< 400
5,CCOC(=O)C1CCN(C(=O)Nc2ccc3nc(-c4ccco4)c(-c4ccco4)nc3c2)CC1,932
6,Cc1c(Cc2ccccc2)c(=O)oc2c(O)c(O)ccc12,33900
7,O=[N+]([O-])c1ccc(-c2cc(-c3ccc(Cl)cc3)n[nH]2)cc1,5610
8,COc1ccc(-c2cc3nc4ccccc4n3c(N)c2C#N)cc1,4450
9,COc1cc(/C=C/C(=O)OCC(=O)Nc2cc(C)c(C)cc2[N+](=O)[O-])ccc1O,2400
10,Cc1ccc(S(=O)(=O)/N=C2/C=C(C3C(=O)CC(C)(C)CC3=O)C(=O)c3ccccc32)cc1,2870
11,COc1cc(/C=C2/C(=O)c3cccc([N+](=O)[O-])c3C2=O)c(Br)cc1O,< 400
12,CN(C(=O)COC(=O)c1cc(-c2ccco2)nc2ccccc12)C1CCS(=O)(=O)C1 (configuration not stated),< 400
13,COCCCNC(=O)/C(C#N)=C/c1ccc(OCC(=O)O)c(OC)c1,3460
14,CC1=Nc2cccc3cccc(c23)N1,2630
15,COc1cc(/C=C2\SC(=O)N(Cc3ccc(Cl)cc3)C2=O)cc([N+](=O)[O-])c1O,7110
16,O=C(COC(=O)c1ccc(NS(=O)(=O)c2cccs2)cc1)NCc1ccco1,2410
17,C=CCSC1=N/C(=C\C=C\c2ccco2)C(=O)S1,5070
18,COc1cccc(-n2c(SCc3cc(=O)oc4cc(O)c(O)cc34)nc3ccccc3c2=O)c1,2180
19,Cc1cccc2c1c1ccc3c(c1n2C)C(=O)C=CC3=O,< 400
20,O=C(Nc1ccc(Nc2ccncc2)cc1)c1ccc(Nc2ccnc3ccc([N+](=O)[O-])cc23)cc1[N+](=O)[O-],3110
21,OCCNc1nc(Nc2ccccc2)nc(Nc2ccccc2)n1,> 54000
22,Cc1[nH]c2ccccc2c1/C=N/Nc1ccc([N+](=O)[O-])cc1,760
23,COc1ccc(-c2ccc(/C=C3/C(=N)N4C=CSC4=NC3=O)o2)c([N+](=O)[O-])c1,1660
24,CCCCN1C(=O)/C(=C/C=C/c2ccco2)C(=O)NC1=S,550
25,Cc1ccc(-c2nn(-c3ccccc3)cc2/C=C2\SC(=S)N(CC(=O)O)C2=O)cc1,4630
